In general, Ki refers to a dissociation constant, usually derived from enzyme kinetics or from competition with a known ligand. High values mean lower affinity, low ones higher affinity.

The experiment addresses Serotonin 3 (5-HT3) receptor. The experiment in a line: Binding affinity to 5-HT3 serotonin receptor in NG 108-15 neuroblastoma glioma cells using [3H]GR-65630 radioligand.
Compound `N=C(N)Nc1cc(Cl)c(Cl)c(Cl)c1` returned a Ki of 0.7 nM.
As for `N=C(N)NC(=N)Nc1cccc(Cl)c1`, the figure is 18 nM.
The same measure for `NC(N)=Nc1cccc(Cl)c1`: 32 nM; for `Nc1nc(Nc2cccc(Cl)c2)n[nH]1`: more than 10000 nM.
The compound `N=C(N)NC(=N)Nc1cc(Cl)c(Cl)c(Cl)c1` returned a Ki of 2.7 nM.
The same measure for `N=C(N)Nc1cc(Cl)cc(Cl)c1`: 5 nM; for `C/N=C(\N)Nc1cccc(Cl)c1`: 450 nM.
The same measure for `Clc1cccc(NC2=NCCN2)c1`: more than 10000 nM; for `Cc1ccc(NC(=N)N=C(N)N)cc1`: 890 nM; for `COc1ccc(NC(=N)N)cc1`: 990 nM.
The same measure for `NC(N)=Nc1ccc2ccccc2c1`: 18 nM; for `C/N=C(\NC)Nc1cccc(Cl)c1`: more than 10000 nM.
In turn, `N=C(N)N=C(N)Nc1cc(Cl)cc(Cl)c1` showed an inhibition constant (Ki) of 1.8 nM.
Consider `N=C(N)Nc1ccc(Cl)c(Cl)c1`, for which the affinity, expressed as Ki, was 3.1 nM.
The same measure for `N=C(N)Nc1ccc(Cl)cc1`: 326 nM.
As for `CN(C(=N)N)c1cccc(Cl)c1`, the figure is 6200 nM.
In turn, `N=C(N)NC(=N)Nc1ccc(Cl)c(Cl)c1` returned a Ki of 12 nM.
The same measure for `COc1ccc(NC(=N)N)cc1OC`: 2710 nM; for `N=C(N)N=C(N)Nc1ccc2ccccc2c1`: 14 nM.
The same measure for `N=C(N)Nc1ccc(Cl)c(C(F)(F)F)c1`: 36 nM; for `Cc1ccc(NC(=N)N)cc1`: 442 nM.
As for `N=C(N)Nc1ccc(C(F)(F)F)cc1`, the figure is 230 nM.
As for `N=C(N)Nc1ccc2c(c1)OCO2`, affinity was put at a Ki of 274 nM. The Ki values of the last two compounds are within 1.5-fold of each other.
The same measure for `NC(N)=Nc1cccc(C(F)(F)F)c1`: 2440 nM; for `N=C(N)NC(=N)Nc1ccc(Cl)cc1` [4-CHLOROPHENYLBIGUANIDE]: 210 nM.
